Assay results as given in patent US20050244819A1, “Assay system for screening protease inhibitors” (priority 2004, published 2005).

Assays:
D30N HIV protease = biological target: T1, D30N HIV protease (Human immunodeficiency virus type 1 group M subtype B, UniProt P12497, D518N); assay: cell-based; design: species or system HIV-1
T1 construct: used to replace the wild-type HIV protease domain in the two-cistron expression construct; Met-Gly (my reading of primer TF-F) + native transframe region (56 aa directly upstream of the protease in Gag-Pol) (N); Lys-Glu-Glu (my translation of primer PR-R: Shine-Dalgarno in frame before the stop codon) (C); expressed in transfected cells; host or cells: E. coli bearing plasmid pTF-PR^D30N
Method: (§1) Cell-Based β-galactosidase Activity Assay. Cell-based β-galactosidase activity assays were performed basically as described in Example 4. E. coli cells bearing each of the expression plasmids were grown as described, except that after incubation at 37° C. for 2 h to an OD630 of 0.6, the cells were transferred in triplicate sets to the wells of 96-well microplates. The cells were subjected to simultaneous induction for recombinant protein expression as well as drug treatment with HIV protease inhibitors at the indicated concentrations in 2% DMSO. For the screening of the compound library generated by the amide-forming reaction (see Example 5), DMF was used instead of DMSO. […] After the OD630 of the cells was determined by using an Ultramark microplate imaging system (Bio-Rad, Hercules, Calif.), ONPG was added at a final concentration of 200 μM to start the enzymatic reactions at 37° C. Changes in the OD415, indicating the production of ortho-nitrophenol, were continuously monitored with the Ultramark microplate imaging system. […] The β-galactosidase activity was determined as the number of micromoles of ortho-nitrophenol produced per minute at 37° C. […]

[1] = biological target: T2, HIV protease precursor TF-PR^WT (Human immunodeficiency virus type 1 group M subtype B, UniProt P12497, L434F); assay: cell-based; design: species or system HIV-1
T2 construct: Met-Gly (my reading of primer TF-F) + native transframe region (TFP 8 aa + p6pol 48 aa = 56 aa directly upstream of the protease in Gag-Pol); removed by autoprocessing (N, cleaved yes); expressed in transfected cells; host or cells: E. coli DH5α bearing plasmid pTF-PR^WT (pBAD, arabinose-induced)
Method: (§2) Stock solutions of the FDA-approved HIV protease inhibitors were prepared by solubilizing the drugs in 100% dimethyl sulfoxide (DMSO) at 100 mM. A single colony of the cells bearing the respective plasmid, namely pTF-PR^WT or pTF-PR^mutant, was inoculated into 2 ml of Luria-Bertani (LB) medium with 100 μg of ampicillin/ml and grown overnight at 37° C. The culture was diluted 100-fold with fresh Luria-Bertani medium containing 100 μg of ampicillin/ml and incubated at 37° C. for 2 h until the optical density at 630 nm (OD630) of the cells reached 0.6. The cells were then induced for protein expression with 0.2% arabinose and simultaneously treated with either HIV protease inhibitors dissolved in 2% DMSO at the indicated concentrations or 2% DMSO alone as the negative control. After incubation for an additional 3 h at 30° C., the cells were collected for Western blot analysis of proteins.

Wild-type HIV = conditions: concentration inhibiting 90% of mammalian cell death induced by HIV infection; Patick et al.; read-out: EC90 (μM) from standard antiviral assay with: Wild-type HIV; cited from earlier work
wild-type HIV protease = wild-type HIV protease (Human immunodeficiency virus type 1 group M subtype B, UniProt P12497); assay: cell-based
Method: as §2
Cell-Based β-galactosidase Activity Assay. Cell-based β-galactosidase activity assays were performed basically as described in Example 4. E. coli cells bearing each of the expression plasmids were grown as described, except that after incubation at 37° C. for 2 h to an OD630 of 0.6, the cells were transferred in triplicate sets to the wells of 96-well microplates. The cells were subjected to simultaneous induction for recombinant protein expression as well as drug treatment with HIV protease inhibitors at the indicated concentrations in 2% DMSO. For the screening of the compound library generated by the amide-forming reaction (see Example 5), DMF was used instead of DMSO. After incubation for an additional 3 h at 30° C., the cells were made permeable for the entry of the β-galactosidase substrate, (ortho-nitrophenyl-β-D-galactopyranoside (ONPG)), by diluting the cells in assay buffer (10 mM NaP, pH 7.3, 10 mM NaCl, 1 mM MgSO4, 5 mM β-mercaptoethanol) that contained 50 μg of polymyxin B sulfate/ml and 2%Triton X-100 (Schupp et al., BioTechniques 19:18-20 (1995)). The cells were then incubated for 5 min at room temperature in 96-well microplates. After the OD630 of the cells was determined by using an Ultramark microplate imaging system (Bio-Rad, Hercules, Calif.), ONPG was added at a final concentration of 200 μM to start the enzymatic reactions at 37° C. Changes in the OD415, indicating the production of ortho-nitrophenol, were continuously monitored with the Ultramark microplate imaging system. The linear portion of the progression curve was used to determine the initial velocity with MATLAB (The MathWorks Inc., Natick, Mass.). The difference in OD415 (ΔA) was converted to the increase in product concentration (ΔC) by using the equation ΔA=ε(ΔC)(L), where L is the light path of 0.4 cm and the extinction coefficient (ε) of ortho-nitrophenol was 3,500 M^−1 cm^−1 under the assay conditions. The β-galactosidase activity was determined as the number of micromoles of ortho-nitrophenol produced per minute at 37° C. The β-galactosidase activity was then normalized against the amount of total cellular proteins, which was estimated by assuming that an OD630 unit corresponds to 1.4×10^9 cells and that every 10^9 cells yield approximately 150 μg of proteins (Pardee et al., J. Mol. Biol. 1:165-68 (1959)).
ββ-galactosidase activity assays were performed as described in Example 8. After drug treatment for 3 h, the cells were processed for detection of β-galactosidase activity of whole cells in 96-well microplates as described. Cells coexpressing TF-PR^WT and β-GalPR were treated with HIV protease inhibitors at the concentrations between 0 and 400 μM. β-galactosidase activities (micromoles per minute per milligram of total protein) in the treated E. coli cells were determined.
The β-galactosidase activity detected in E. coli coexpressing TF-PR^WT and β-Gal^PR in the absence of HIV protease inhibitors was referred to as 0% inhibition.

D30N HIV strain = conditions: concentration inhibiting 90% of mammalian cell death induced by HIV infection; Patick et al.; read-out: EC90 (μM) from standard antiviral assay with: D30N HIV strain; cited from earlier work
I84V HIV protease = biological target: T3, I84V HIV protease (Human immunodeficiency virus type 1 group M subtype B, UniProt P12497, I572V); assay: E. coli-based assay system: β-galactosidase activity, cells co-expressing TF-PR^I84V and β-Gal^PR; type: cell-based, HIV-1
T3 construct: used to replace the wild-type HIV protease domain in the two-cistron system to construct the plasmid pTF-PR^I84V; Met-Gly (my reading of primer TF-F) + native transframe region (56 aa directly upstream of the protease in Gag-Pol) (N); Lys-Glu-Glu (my translation of primer PR-R: Shine-Dalgarno in frame before the stop codon) (C); expressed in transfected cells; host or cells: E. coli bearing plasmid pTF-PR^I84V
Method: as §1

Cc1c(O)cccc1C(=O)N[C@@H](CSc1ccccc1)[C@H](O)CN1C[C@H]2CCCC[C@H]2C[C@H]1C(=O)NC(C)(C)C [NFV, nelfinavir]
IC50 (D30N HIV protease): > 400000 nM | IC50 [1]: 1600 to 8000 nM | EC90 (Wild-type HIV): 0.03 µM | IC50 (wild-type HIV protease): 48400 ± 4800 nM | inhibition at 400 µM (wild-type HIV protease; read-out: % inhibition against the wild-type HIV protease): 75% | EC90 (D30N HIV strain): 0.18 µM

pepstatin A
inhibition of β-galactosidase activity (so in the source) (wild-type HIV protease; E. coli cells coexpressing TF-PR^WT and β-Gal^PR): did not inhibit | cell permeability (wild-type HIV protease; E. coli cells, inferred from lack of inhibition): low cell permeability | inhibitory effects in the assay procedures described herein (wild-type HIV protease; up to 5 mM): failed to exert any inhibitory effects

CC(C)c1nc(CN(C)C(=O)N[C@H](C(=O)N[C@@H](Cc2ccccc2)C[C@H](O)[C@H](Cc2ccccc2)NC(=O)OCc2cncs2)C(C)C)cs1 [RTV, ritonavir]
EC90 (Wild-type HIV): 0.05 µM | EC90 (D30N HIV strain): 0.01 µM

CC(C)(C)NC(=O)[C@@H]1C[C@@H]2CCCC[C@@H]2CN1C[C@@H](O)[C@H](Cc1ccccc1)NC(=O)[C@H](CC(N)=O)NC(=O)c1ccc2ccccc2n1 [SQV, saquinavir]
EC90 (Wild-type HIV): 0.03 µM | EC90 (D30N HIV strain): 0.01 µM

CC(C)(C)NC(=O)[C@@H]1CN(Cc2cccnc2)CCN1C[C@@H](O)C[C@@H](Cc1ccccc1)C(=O)N[C@H]1c2ccccc2C[C@H]1O [IDV, indinavir]
EC90 (Wild-type HIV): 0.06 µM | EC90 (D30N HIV strain): 0.01 µM

CC(C)CN(C[C@@H](O)[C@H](Cc1ccccc1)NC(=O)O[C@H]1CCOC1)S(=O)(=O)c1ccc(N)cc1 [APV, amprenavir]
IC50 (D30N HIV protease): 35900 ± 17700 nM | IC50 (I84V HIV protease): 280000 ± 39000 nM | IC50 [1]: 1600 to 8000 nM | IC50 (wild-type HIV protease): 53400 ± 17400 nM
